The compounds below were run on metabolism of retinoic acid in human breast cancer cells (assay: Inhibition of retinoic acid (RA) metabolism (Example C.1)). Conditions: MCF-7 human breast cancer cells, 3H-RA as substrate; concentration needed to reduce the amount of metabolites to 50% of the control.
Assay type: cell-based
Summary of the method: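 MCF-7 cells, pre-stimulated with RA the day before, incubated with ³H-RA substrate and test compound in 1% DMSO. Polar ³H-metabolites separated from unmetabolized RA and counted by scintillation. IC50 is the concentration cutting metabolite formation to 50% of control, with blank run alongside.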

IC50 [nM]	SMILES
6.38	COc1cc(CC(=O)Nc2ccc(C(C(C)C)n3cncn3)cc2)ccc1O (stereo not drawn) [Compound 138]
0.154	CCC(CC)C(c1ccc(NC(=O)Nc2ccccc2F)cc1)n1cncn1 (racemic) [Compound 715]
10.9	C/C(=C\c1ccc(C(F)(F)F)cc1F)C(=O)Nc1ccc(C(C(C)C)n2ccnc2)cc1 (racemic) [Compound 609]
1.25	CCC(CC)C(c1ccc(NC(=O)C2Oc3ccccc3O2)cc1)n1cncn1 (racemic) [Compound 621]
11.7	CC(C)C(c1ccc(NC(=O)c2cnc3ccccc3n2)cc1)n1ccnc1 (racemic) [Compound 216]
36	CC(C)C(c1ccc(NC(=O)c2ccc3ccccc3n2)cc1)n1ccnc1 (racemic) [Compound 215]
860	CCCCC(=CC(=O)Nc1ccc(C(c2ccc(Cl)cc2)n2ccnc2)cc1)c1ccccc1 (racemic) [Compound 513]
> 100	O=C(Cc1ccc(Cl)cc1)Nc1ccc(C(c2cccc(C(F)(F)F)c2)n2ccnc2)cc1 (stereo not drawn) [Compound 361]
2.03	CC(C)C(c1ccc(NC(=O)Nc2cccc(Cl)c2)cc1)n1ccnc1 (racemic) [Compound 738]
0.569	CCOc1ccc(CCCC(=O)Nc2ccc(C(C(CC)CC)n3ccnc3)cc2)cc1 (racemic) [Compound 48]
32.9	CC(C)C(c1ccc(NC(=O)/C=C/c2ccccc2)cc1)n1ccnc1 (racemic) [Compound 502]
1.23	CC(C(c1ccc(NC(=O)Cc2ccc3c(c2)OCCO3)cc1)n1ccnc1)N(C)C (single isomer, unassigned) [Compound 339]
0.79	CCC(CC)C(c1ccc(NC(=O)Cc2ccc3c(c2)OCCO3)cc1)n1cncn1 (racemic) [Compound 7]
0.463	CCC(CC)C(c1ccc(NC(=O)Cc2ccc(OC)c(OC)c2)cc1)n1cncn1 (racemic) [Compound 73]
2.24	CCOc1ccc(C(=O)Nc2ccc(C(C(CC)CC)n3ccnc3)cc2)cc1 (racemic) [Compound 35]
> 100	CC(C)C(c1ccc(NC(=O)C2(c3ccccc3)CC2)cc1)n1ccnc1 (stereo not drawn) [Compound 190]
3.89	CC(C)C(c1ccc(NC(=O)c2cccc3c2OCCO3)cc1)n1ccnc1 (racemic) [Compound 230]
8.66	CC(C)C(c1ccc(NC(=O)C(O)c2ccc(Cl)cc2)cc1)n1ccnc1 (stereo not drawn) [Compound 669]
0.379	CCC(CC)C(c1ccc(NC(=O)Cc2ccc(C)cc2)cc1)n1cncn1 (racemic) [Compound 65]
14.3	O=C(Cc1ccc(Cl)cc1)Nc1ccc(C(C2CCCCC2)n2ccnc2)cc1 (stereo not drawn) [Compound 362]
3.68	COCC(C)C(c1ccc(NC(=O)Cc2ccc(OC)c(OC)c2)cc1)n1ccnc1 (single isomer, unassigned) [Compound 405]
1.43	CCOc1ccc(CC(=O)Nc2ccc(C(C(C)C)n3cncn3)cc2)cc1 (stereo not drawn) [Compound 135]
2.4	CCC(CC)C(c1ccc(NC(=O)Cc2cc(C)ccc2OC)cc1)n1ccnc1 (racemic) [Compound 122]
14.1	CC(C)C(c1ccc(NC(=O)C2CCCO2)cc1)n1ccnc1 (racemic) [Compound 181]
0.133	CCC(CC)C(c1ccc(NC(=O)Nc2ccc(OC)c(OC)c2)cc1)n1cncn1 (racemic) [Compound 718]

SMILES	IC50 [nM]
O=C(/C=C/c1ccccc1)Nc1ccc(C(c2ccccc2)n2ccnc2)cc1 (racemic) [Compound 497]	37.6
C/C(=C\c1ccccc1)C(=O)Nc1ccc(C(C2CC2)n2ccnc2)cc1 (racemic) [Compound 469]	> 100

These compounds were tested on Ovariectomized rats (assay: Vaginal keratinization test on ovariectomized rats (Example C.2)). Conditions: estradiol undecylate induced keratinization, per os once daily on days 1-3, active dose = 50% of rats show complete suppression.
Assay type: in vivo
Summary of the method: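 Ovariectomized rats given s.c. estradiol undecylate (100 μg per 100 g body weight in sesame oil), then oral compound once daily on days 1-3 (vehicle PEG 200). Vaginas assessed histologically one day after last dose; lowest active dose (mg/kg) is the dose giving complete keratinization suppression in 50% of rats.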

SMILES	LAD (lowest active dose) [mg/kg]
O=C(/C=C/c1ccccc1)Nc1ccc(C(c2ccccc2)n2ccnc2)cc1 (racemic) [Compound 497]	>20.00
COc1cc(CC(=O)Nc2ccc(C(C(C)C)n3cncn3)cc2)ccc1O (stereo not drawn) [Compound 138]	>5.00
CCC(CC)C(c1ccc(NC(=O)Nc2ccccc2F)cc1)n1cncn1 (racemic) [Compound 715]	>2.50
C/C(=C\c1ccc(C(F)(F)F)cc1F)C(=O)Nc1ccc(C(C(C)C)n2ccnc2)cc1 (racemic) [Compound 609]	10.00
CCC(CC)C(c1ccc(NC(=O)C2Oc3ccccc3O2)cc1)n1cncn1 (racemic) [Compound 621]	1.25
CC(C)C(c1ccc(NC(=O)c2cnc3ccccc3n2)cc1)n1ccnc1 (racemic) [Compound 216]	20.00
CC(C)C(c1ccc(NC(=O)c2ccc3ccccc3n2)cc1)n1ccnc1 (racemic) [Compound 215]	20.00
CCCCC(=CC(=O)Nc1ccc(C(c2ccc(Cl)cc2)n2ccnc2)cc1)c1ccccc1 (racemic) [Compound 513]	>20.00
O=C(Cc1ccc(Cl)cc1)Nc1ccc(C(c2cccc(C(F)(F)F)c2)n2ccnc2)cc1 (stereo not drawn) [Compound 361]	10.00
CC(C)C(c1ccc(NC(=O)Nc2cccc(Cl)c2)cc1)n1ccnc1 (racemic) [Compound 738]	10.00
CCOc1ccc(CCCC(=O)Nc2ccc(C(C(CC)CC)n3ccnc3)cc2)cc1 (racemic) [Compound 48]	2.50
CC(C)C(c1ccc(NC(=O)/C=C/c2ccccc2)cc1)n1ccnc1 (racemic) [Compound 502]	5.00
CC(C(c1ccc(NC(=O)Cc2ccc3c(c2)OCCO3)cc1)n1ccnc1)N(C)C (single isomer, unassigned) [Compound 339]	>2.50
CCC(CC)C(c1ccc(NC(=O)Cc2ccc3c(c2)OCCO3)cc1)n1cncn1 (racemic) [Compound 7]	>2.50
CCC(CC)C(c1ccc(NC(=O)Cc2ccc(OC)c(OC)c2)cc1)n1cncn1 (racemic) [Compound 73]	>2.50
CCOc1ccc(C(=O)Nc2ccc(C(C(CC)CC)n3ccnc3)cc2)cc1 (racemic) [Compound 35]	2.50
CC(C)C(c1ccc(NC(=O)C2(c3ccccc3)CC2)cc1)n1ccnc1 (stereo not drawn) [Compound 190]	>10.00
CC(C)C(c1ccc(NC(=O)c2cccc3c2OCCO3)cc1)n1ccnc1 (racemic) [Compound 230]	>10.00
C/C(=C\c1ccccc1)C(=O)Nc1ccc(C(C2CC2)n2ccnc2)cc1 (racemic) [Compound 469]	>10.00
CC(C)C(c1ccc(NC(=O)C(O)c2ccc(Cl)cc2)cc1)n1ccnc1 (stereo not drawn) [Compound 669]	5.00
CCC(CC)C(c1ccc(NC(=O)Cc2ccc(C)cc2)cc1)n1cncn1 (racemic) [Compound 65]	5.00
O=C(Cc1ccc(Cl)cc1)Nc1ccc(C(C2CCCCC2)n2ccnc2)cc1 (stereo not drawn) [Compound 362]	10.00
COCC(C)C(c1ccc(NC(=O)Cc2ccc(OC)c(OC)c2)cc1)n1ccnc1 (single isomer, unassigned) [Compound 405]	5.00
CCOc1ccc(CC(=O)Nc2ccc(C(C(C)C)n3cncn3)cc2)cc1 (stereo not drawn) [Compound 135]	2.50
CCC(CC)C(c1ccc(NC(=O)Cc2cc(C)ccc2OC)cc1)n1ccnc1 (racemic) [Compound 122]	>2.50
CC(C)C(c1ccc(NC(=O)C2CCCO2)cc1)n1ccnc1 (racemic) [Compound 181]	10.00
CCC(CC)C(c1ccc(NC(=O)Nc2ccc(OC)c(OC)c2)cc1)n1cncn1 (racemic) [Compound 718]	2.50

Reference: patent US7179825B2, “Retinoic acid mimetic anilides” (Janssen Pharmaceutica N.V., priority 1997, dated 2007)
